Reference: US20240189289A1, “INHIBITORS OF EPHB3 SIGNALING” (The Brigham and Women`s Hospital, Inc., priority 2021, published 2024)
“Also recorded” adds a separate entry of the source.

What was measured:
[1] = Mouse liver microsome stability; type: in vitro ADME; conditions: mouse liver microsomes; read-out: mouse liver microsome stability T1/2
microglia = assay: Neonatal murine microglia stimulated with LPS: qPCR; type: cell-based, mouse; conditions: induced by LPS stimulation
Experimental: RNA isolation, cDNA synthesis and qPCR. RNA was extracted from in vitro generated samples with RNeasy Mini kit (#74106, QIAGEN) and cDNA was prepared by using the High-Capacity cDNA Reverse Transcription Kit (#4368813, Life Technologies), both according to the manufacturer's protocol. Gene expression was measured by qPCR with Taqman Fast Universal PCR Master Mix (#4367846, Life Technologies). Data were analyzed by the ddCt method by normalizing the expression of each gene to GAPDH and HPRT for mouse and GAPDH for human and then to the control group. All probes are listed below. • Mouse: EphB3 Mm00802553_m1, Ccl2 Mm00441242_m1, Csf2 Mm01290062_m1, Nos2 Mm00440502_m1, Tnf Mm00443258 m1, Il1b Mm00434228_m1, 116 Mm00446190_m1, GAPDH Mm99999915_g1. • Human: CCL2 Hs00234140_m1, CSF2 Hs00929873 ml, NOS2 Hs01075529_m1, TNF • Hs00174128_m1, IL6 Hs00985639_m1, IL1b Hs01555410_m1, GAPDH Hs02758991_g1.

astrocytes [2] = assay: TNFα production in astrocytes (AlphaLISA, astrocyte-microglia co-cultures); type: cell-based, mouse; conditions: primary astrocytes
Experimental: AlphaLISA. Astrocyte-microglia co-cultures were seeded in 384 well plates pre coated with Poly-L-Lysine at a density of 10^4 cells/well. After 3 days, cells were preincubated with the corresponding compounds 30 minutes before LPS stimulation (0.5 ng/mL Invivogen #tlrl-3pelps) and supernatants were collected after 18 h of incubation. mTNFalpha kit (Perkin Elmer #AL505) was used to measure TNFα in the supernatants following the high sensitivity protocol according to manufacturer's instructions. Briefly, 2 μl of the supernatants or given standards were subsequently mixed with 5 μl of anti-TNFα acceptor beads, 30 minutes after biotinylated antibody anti-TNFα was added after 1 h SA-Donor beads were added and incubated 30 minutes. All incubations were performed at 23° C. in the dark. Fluorescence at 615 nm was then measured using an EnVision-Apha Reader (Perkin Elmer #2105-0010).

EphB3 = target: T1, EphB3 (Homo sapiens, UniProt P54753); assay: EphB3 radiometric kinase activity assay (33P ATP filter binding); type: biochemical; conditions: FIG. 1C
T1 sequence (P54753 34-998): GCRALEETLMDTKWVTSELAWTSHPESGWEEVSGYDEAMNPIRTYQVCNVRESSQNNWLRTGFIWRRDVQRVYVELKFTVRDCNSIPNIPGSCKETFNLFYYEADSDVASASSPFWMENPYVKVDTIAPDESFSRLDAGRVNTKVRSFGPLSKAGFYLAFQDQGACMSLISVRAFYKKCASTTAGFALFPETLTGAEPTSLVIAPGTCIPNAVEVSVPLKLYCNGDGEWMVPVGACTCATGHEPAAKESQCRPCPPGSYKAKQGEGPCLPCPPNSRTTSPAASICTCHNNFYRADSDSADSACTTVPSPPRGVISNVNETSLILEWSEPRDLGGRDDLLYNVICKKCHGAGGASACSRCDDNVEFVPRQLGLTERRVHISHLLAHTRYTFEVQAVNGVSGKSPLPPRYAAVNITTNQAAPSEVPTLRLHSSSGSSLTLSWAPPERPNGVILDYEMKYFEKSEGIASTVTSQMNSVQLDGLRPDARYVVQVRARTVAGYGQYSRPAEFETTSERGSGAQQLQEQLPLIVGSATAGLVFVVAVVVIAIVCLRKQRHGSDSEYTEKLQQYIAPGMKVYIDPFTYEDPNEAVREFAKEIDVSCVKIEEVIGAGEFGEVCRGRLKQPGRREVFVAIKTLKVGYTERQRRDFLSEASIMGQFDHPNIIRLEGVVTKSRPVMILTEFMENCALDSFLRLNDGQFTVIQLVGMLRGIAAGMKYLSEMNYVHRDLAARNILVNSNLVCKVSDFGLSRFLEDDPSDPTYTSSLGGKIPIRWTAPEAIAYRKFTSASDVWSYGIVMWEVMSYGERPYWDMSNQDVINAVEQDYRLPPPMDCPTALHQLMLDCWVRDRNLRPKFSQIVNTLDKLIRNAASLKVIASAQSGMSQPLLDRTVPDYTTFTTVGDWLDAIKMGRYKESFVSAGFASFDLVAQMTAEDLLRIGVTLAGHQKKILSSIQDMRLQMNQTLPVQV
Experimental: EphB3 radiometric kinase activity assay. To study the EphB3 kinase activity, a radioactive filter binding assay using 33P ATP was performed as described at the […] International Centre for Kinase profiling. […] The mix was harvested onto P81 filter plates and counts were read on a Topcount NXT.

[3] = test system: PI3K/AKT/mTOR signaling in astrocytes; assay: Western blot of PI3K/AKT/mTOR/NF-κB signaling in primary murine astrocytes; type: cell-based, mouse
Experimental: Mouse primary astrocyte cultures. […] The cell suspension was then cultured at 37° C. in humidified 5% CO2 on poly-L-Lysine (#P4707, Sigma-Aldrich) pre-coated cell culture flasks. Medium was replaced every 3-5 days. The cells reached confluence after 7-10 days. Microglia were separated by shaking the glia culture at 225 rpm at 37° C. for at least 3 h and washing extensively with 1×PBS. Astrocytes were detached by mild trypsinization with Trypsin-EDTA (0.05%) at 37° C. and plated. […] Both cell types were then cultured separately for downstream procedures. […] Finally, microglia and astrocytes of each condition where magnetically separated as before and lysed for downstream gene expression analysis.
SDS-PAGE and Western blot. […] Membranes were blocked in 10% skimmed milk (#M0841, Lab Scientific) in TBS-T (#IBB-180-2L, Boston BioProducts). Primary antibodies were incubated ON at 4° C. and secondary 30 minutes at RT.
HRP-conjugated blots were developed using the KwikQuant imaging system and KwikQuant western blot detection kit (#R1004 Kindle Biosciences).

astrocytes [4] = assay: Mitochondrial ROS measurement (MitoSOX) in astrocytes; type: cell-based, mouse; conditions: induced by stimulation with TNFα and IL-1β
Experimental: Mitochondrial ROS measurement. 50,000 astrocytes were seeded per well in 96-well black plates and rested for 2 days in complete medium, followed by activation or inhibitor pretreatment for 24 h. MitoSOX red (Thermo Fisher Scientific, #M36008) was used to stain for mitochondrial ROS for 10 min following the manual and the signal was detected on Infinite M1000 PRO Microplate Reader (Tecan). The fluorescent signal was normalized to cell number estimated using CyQUANT cell proliferation assay kit (Invitrogen, #C7026) first and then compared to control group for data analysis.

[5] = astrocytes activated 30 minutes with TNFα and IL-1β
[6] = astrocytes stimulated with TNFα and IL-1β

O=C(Nc1ccccc1Cl)c1cnc2ccc(C3CCNCC3)cn12 [A38]
half-life [1]: > 5 h
microglial expression of Nos2 (microglia): no effect
microglial expression of Tnfa (microglia): no effect
TNFα production in astrocytes (astrocytes [2]): suppressed TNFα production; also recorded: highly efficient in down-modulating TNF-α production
EphB3 tyrosine kinase activity in a cell-free assay (EphB3): inhibited EphB3 tyrosine kinase activity in a dose-dependent manner
phosphorylation of AKT [3, 5]: suppressed
phosphorylation of p85a, p55a [3, 5]: suppressed
NF-κB activation (p65 phosphorylation and nuclear translocation) [3, 6]: did not suppress NF-κB activation
S6 phosphorylation [3, 6]: suppressed S6 phosphorylation
mitochondrial production of ROS (astrocytes [4]): decreased
